Measured values: patent publication US10125118B2, “Heteroaryl compounds and their use as therapeutic drugs” (Dong-A Socio Holdings Co., Ltd., priority 2015, dated 2018)
pIC50: −log10 of the molar value.

How the values were obtained:
[1] = test system: CD8-MerTK in Ba/F3-CDM cells; assay: In cell MER kinase assay, Ba/F3-CDM cell proliferation without IL-3 (Celltiter-Glo); type: cell-based, murine; conditions: 48 hours compound treatment, read-out: Cell growth inhibition (GI50)
Procedure: To establish an in cell kinase assay for MerTK kinase, the IL-3 dependent Ba/F3 cells of murine lymphoid origin was transfected with CD8-MerTK. […] For a routine cellular assay, Ba/F3-CDM cells were seeded at 2,000 cells per well in 384-well cell culture plate containing DMEM/10% FBS culture media and incubated for 24 hours before addition of compounds pre-diluted in culture media. Following compound treatment, cells were further incubated for 48 hours and the proliferation was measured. To discriminate a Ba/F3 growth inhibition by a specific inhibition of MerTK kinase following compound treatment vs growth inhibition due to a non-specific unintended cytotoxicity of compounds, we routinely carried out control sets of Ba/F3 cells in parallel that grown in IL3-supplemented growth media. In the presence of IL-3, the proliferation of Ba/F3 is no longer dependent on the MerTK activity. Cell growth and proliferation was measured with Celltiter-Glo™ system (Promega, USA) according to the manufacturer's instruction. The half-maximal growth inhibitory concentration (GI50) value was calculated with Prism6.0 software (GraphPad, USA).

[2] = molecular target: human c-MER catalytic domain (Homo sapiens (Human), UniProt Q12866); assay: LanthaScreen TR-FRET kinase assay, c-MER; conditions: read-out: Mer TK inhibition (IC50); Biochemical IC50, TR-FRET, 10 uM ATP
Sequence of human c-MER catalytic domain (Q12866 587-858): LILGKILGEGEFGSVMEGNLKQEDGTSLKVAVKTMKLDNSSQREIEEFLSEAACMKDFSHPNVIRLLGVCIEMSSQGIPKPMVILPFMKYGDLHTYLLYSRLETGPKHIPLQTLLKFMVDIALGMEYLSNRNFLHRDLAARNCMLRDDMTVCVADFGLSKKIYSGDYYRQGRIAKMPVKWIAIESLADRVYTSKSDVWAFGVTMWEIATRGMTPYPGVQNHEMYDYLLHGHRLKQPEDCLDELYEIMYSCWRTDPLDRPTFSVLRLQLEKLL

| Structure (SMILES) | GI50 [1] | pIC50 [2] |
| --- | --- | --- |
| CC(c1ccc(-c2ccc(CO[C@H]3CCC[C@@H]3NC(=O)c3cc(-c4ccc(F)nc4)cnc3N)cc2)cc1)N1CCN(C)CC1 (stereo in doubt) [Example 223, 6-amino-6′-fluoro-N-((1S,2S)-2-((4′-((R)-1-(4-methylpiperazin-1-yl)ethyl)-[1,1′-biphenyl]-4-yl)methoxy)cyclopentyl)-[3,3′-bipyridine]-5-carboxamide] | 100 to 500 nM | > 8.00 |
| Cc1cccc(C)c1CO[C@H]1CCC[C@@H]1NC(=O)c1cc(-c2cnn(C)c2)cnc1N [Example 15, 2-amino-N-((1S,2S)-2-((2,6-dimethylbenzyl)oxy)cyclopentyl)-5-(1-methyl-1H-pyrazol-4-yl)nicotinamide] | > 1000 nM | < 6.00 |
| CCc1cc(CO[C@H]2CCC[C@@H]2NC(=O)c2cc(-c3cnn(C)c3)cnc2N)ccc1C [Example 21, 2-amino-N-((1S,2S)-2-((3-ethyl-4-methylbenzyl)oxy)cyclopentyl)-5-(1-methyl-1H-pyrazol-4-yl)nicotinamide] | > 1000 nM | > 8.00 |
| CN1CCN(Cc2ccc(-c3ccc(OC[C@H]4CCC[C@@H]4NC(=O)c4cc(-c5cnn(C)c5)cnc4N)cc3)cc2)CC1 [Example 86, 2-amino-5-(1-methyl-1H-pyrazol-4-yl)-N-((1S,2S)-2-(((4′-((4-methylpiperazin-1-yl)methyl)-[1,1′-biphenyl]-4-yl)oxy)methyl)cyclopentyl)nicotinamide] | 100 to 500 nM | > 8.00 |
| CNc1ccc(-c2ccc(CO[C@H]3CCC[C@@H]3NC(=O)c3cc(-c4cnn(C)c4)cnc3N)cc2)cc1 [Example 136, 2-amino-5-(1-methyl-1H-pyrazol-4-yl)-N-((1S,2S)-2-((4′-(methylamino)-[1,1′-biphenyl]-4-yl)methoxy)cyclopentyl)nicotinamide] | 100 to 500 nM | > 8.00 |
| CN(C)c1ccc(-c2ccc(CO[C@H]3CCC[C@@H]3NC(=O)c3cc(-c4cnn(C)c4)cnc3N)cc2)cc1 [Example 137, 2-amino-N-((1S,2S)-2-((4′-(dimethylamino)-[1,1′-biphenyl]-4-yl)methoxy)cyclopentyl)-5-(1-methyl-1H-pyrazol-4-yl)nicotinamide] | < 100 nM | > 8.00 |
| Cn1cc(-c2cnc(N)c(C(=O)N[C@H]3CCC[C@@H]3OCc3ccc(-c4ccc(CO)cc4)cc3)c2)cn1 [Example 142, 2-amino-N-((1S,2S)-2-((4′-(hydroxymethyl)-[1,1′-biphenyl]-4-yl)methoxy)cyclopentyl)-5-(1-methyl-1H-pyrazol-4-yl)nicotinamide] | 100 to 500 nM | > 8.00 |
| Cn1cc(-c2cnc(N)c(C(=O)N[C@H]3CCC[C@@H]3OCc3ccc(-c4ccc(CCN)cc4)cc3)c2)cn1 [Example 145, 2-amino-N-((1S,2S)-2-((4′-(2-aminoethyl)-[1,1′-biphenyl]-4-yl)methoxy)cyclopentyl)-5-(1-methyl-1H-pyrazol-4-yl)nicotinamide] | > 1000 nM | > 8.00 |
| CN1CCN(c2ccc(-c3ccc(CO[C@H]4CCC[C@@H]4NC(=O)c4cc(-c5cnn(C)c5)cnc4N)cc3)cc2)CC1 [Example 146, 2-amino-5-(1-methyl-1H-pyrazol-4-yl)-N-((1S,2S)-2-((4′-(4-methylpiperazin-1-yl)-[1,1′-biphenyl]-4-yl)methoxy)cyclopentyl)nicotinamide] | < 100 nM | > 8.00 |
| Cn1cc(-c2cnc(N)c(C(=O)N[C@H]3CCC[C@@H]3OCc3ccc(-c4ccc(N5CCNCC5)nc4)cc3)c2)cn1 [Example 147, 2-amino-5-(1-methyl-1H-pyrazol-4-yl)-N-((1S,2S)-2-((4-(6-(piperazin-1-yl)pyridin-3-yl)benzyl)oxy)cyclopentyl)nicotinamide] | 100 to 500 nM | > 8.00 |
| CN1CCN(c2ccc(-c3ccc(CO[C@H]4CCC[C@@H]4NC(=O)c4cc(-c5cnn(C)c5)cnc4N)cc3)cn2)CC1 [Example 148, 2-amino-5-(1-methyl-1H-pyrazol-4-yl)-N-((1S,2S)-2-((4-(6-(4-methylpiperazin-1-yl)pyridin-3-yl)benzyl)oxy)cyclopentyl)nicotinamide] | > 1000 nM | > 8.00 |
| CCc1ccc(-c2ccc(CO[C@H]3CCC[C@@H]3NC(=O)c3cc(-c4cnn(C)c4)cnc3N)cc2)cc1 [Example 153, 2-amino-N-((1S,2S)-2-((4′-ethyl-[1,1′-biphenyl]-4-yl)-methoxy)cyclopentyl)-5-(1-methyl-1H-pyrazol-4-yl)nicotinamide] | 500 to 1000 nM | > 8.00 |
| CN1CCN(Cc2ccc(-c3ccc(CO[C@H]4CCC[C@@H]4NC(=O)c4cc(-c5cnn(C)c5)cnc4N)c(F)c3)cc2)CC1 [Example 156, 2-amino-N-((1S,2S)-2-((3-fluoro-4′-((4-methylpiperazin-1-yl)-methyl)-[1,1′-biphenyl]-4-yl)methoxy)cyclopentyl)-5-(1-methyl-1H-pyrazol-4-yl)-nicotinamide] | < 100 nM | > 8.00 |
| C[C@@H]1CN(Cc2ccc(-c3ccc(CO[C@H]4CCC[C@@H]4NC(=O)c4cc(-c5cnn(C)c5)cnc4N)c(F)c3)cc2)C[C@H](C)N1C [Example 157, 2-amino-N-((1S,2S)-2-((3-fluoro-4′-((cis-3,4,5-trimethylpiperazin-1-yl)methyl)-[1,1′-biphenyl]-4-yl)methoxy)cyclopentyl)-5-(1-methyl-1H-pyrazol-4-yl)-nicotinamide] | 100 to 500 nM | > 8.00 |
| CN1CCN(Cc2ccc(-c3ccc(CO[C@H]4CCC[C@@H]4NC(=O)c4cc(-c5cnn(C)c5)cnc4N)cc3Cl)cc2)CC1 [Example 159, 2-amino-N-((1S,2S)-2-((2-chloro-4′-((4-methylpiperazin-1-yl)-methyl)-[1,1′-biphenyl]-4-yl)methoxy)cyclopentyl)-5-(1-methyl-1H-pyrazol-4-yl)-nicotinamide] | 100 to 500 nM | > 8.00 |
| CN1CCN(CCc2ccc(-c3ccc(CO[C@H]4CCC[C@@H]4NC(=O)c4cc(-c5cnn(C)c5)cnc4N)cc3)cc2)CC1 [Example 161, 2-amino-5-(1-methyl-1H-pyrazol-4-yl)-N-((1S,2S)-2-((4′-(2-(4-methylpiperazin-1-yl)ethyl)-[1,1′-biphenyl]-4-yl)methoxy)cyclopentyl)nicotinamide] | < 100 nM | > 8.00 |
| Cn1cc(-c2cnc(N)c(C(=O)N[C@H]3CCC[C@@H]3OCc3ccc(-c4ccc(CN5CCNCC5)cc4)cc3)c2)cn1 [Example 177, 2-amino-5-(1-methyl-1H-pyrazol-4-yl)-N-((1S,2S)-2-((4′-(piperazin-1-ylmethyl)-[1,1′-biphenyl]-4-yl)methoxy)cyclopentyl)nicotinamide] | 100 to 500 nM | > 8.00 |
| Cn1cc(-c2cnc(N)c(C(=O)N[C@H]3CCC[C@@H]3OCc3ccc(-c4ccc(CN5CCC(N6CCCC6)CC5)cc4)cc3)c2)cn1 [Example 179, 2-amino-5-(1-methyl-1H-pyrazol-4-yl)-N-((1S,2S)-2-((4′-((4-(pyrrolidin-1-yl)piperidin-1-yl)methyl)-[1,1′-biphenyl]-4-yl)methoxy)cyclopentyl)-nicotinamide] | 100 to 500 nM | > 8.00 |
| Cn1cc(-c2cnc(N)c(C(=O)N[C@H]3CCC[C@@H]3OCc3ccc(-c4ccc(CN5CCC(O)CC5)cc4)cc3)c2)cn1 [Example 180, 2-amino-N-((1S,2S)-2-((4′-((4-hydroxypiperidin-1-yl)methyl)-[1,1′-biphenyl]-4-yl)methoxy)cyclopentyl)-5-(1-methyl-1H-pyrazol-4-yl)nicotinamide] | > 1000 nM | > 8.00 |
| Cn1cc(-c2cnc(N)c(C(=O)N[C@H]3CCC[C@@H]3OCc3ccc(-c4ccc(CN5CCN(CCO)CC5)cc4)cc3)c2)cn1 [Example 181, 2-amino-N-((1S,2S)-2-((4′-((4-(2-hydroxyethyl)piperazin-1-yl)-methyl)-[1,1′-biphenyl]-4-yl)methoxy)cyclopentyl)-5-(1-methyl-1H-pyrazol-4-yl)-nicotinamide] | < 100 nM | > 8.00 |
| Cn1cc(-c2cnc(N)c(C(=O)N[C@H]3CCC[C@@H]3OCc3ccc(-c4ccc(CN5CCN(CC(C)(C)O)CC5)cc4)cc3)c2)cn1 [Example 182, 2-amino-N-((1S,2S)-2-((4′-((4-(2-hydroxy-2-methylpropyl)-piperazin-1-yl)methyl)-[1,1′-biphenyl]-4-yl)methoxy)cyclopentyl)-5-(1-methyl-1H-pyrazol-4-yl)nicotinamide] | < 100 nM | > 8.00 |
| CCN1CCN(Cc2ccc(-c3ccc(CO[C@H]4CCC[C@@H]4NC(=O)c4cc(-c5cnn(C)c5)cnc4N)cc3)cc2)CC1 [Example 183, 2-amino-N-((1S,2S)-2-((4′-((4-ethylpiperazin-1-yl)methyl)-[1,1′-biphenyl]-4-yl)methoxy)cyclopentyl)-5-(1-methyl-1H-pyrazol-4-yl)nicotinamide] | < 100 nM | > 8.00 |
| CN1CCN(Cc2ccc(-c3ccc(CO[C@H]4CCC[C@@H]4NC(=O)c4cc(-c5ccc(Cl)c(F)c5)cnc4N)cc3)cc2)CC1 [Example 373, 2-amino-5-(4-chloro-3-fluorophenyl)-N-((1S,2S)-2-((4′-((4-methylpiperazin-1-yl)methyl)-[1,1′-biphenyl]-4-yl)methoxy)cyclopentyl)nicotinamide] | 100 to 500 nM | – |
